Series [1] relates to castrated immature young rats. The experiment in a line: Adapted model of Hershberger's test (levator ani and ventral prostate weight). It counts as in vivo, Sprague Dawley rats. The following applies: Rattus norvegicus, po, 96 h.
The mark [2] stands for this setting: read-out: anabolic protection efficacy with regard to levator ani.
The mark [3] stands for this setting: read-out: androgenic efficacy with regard to the prostate.
Setting [4] is: ORX rats, 30 mg/kg per os, 4 successive days, ORX = 0%, SHAM = 100%, read-out: anabolic protection efficacy with regard to levator ani.
The mark [5] stands for this setting: ORX rats, 30 mg/kg per os, 4 successive days, ventral prostate, ORX = 0%, SHAM = 100%, read-out: androgenic efficacy with regard to the prostate.

These results are taken from US8168667B2 (Galapagos NV, priority 2006, dated 2012).

Where two headings read alike, the source gives them in different places.

Broadly, the melting point is the temperature of the solid-liquid transition. As for `C#CCN1C(=O)N(c2ccc(C#N)c(C(F)(F)F)c2)C(=O)C1c1ccc(O)cc1` (centres unmarked) [Example 4, 4-[2,5-dioxo-4-(4-hydroxyphenyl)-3-(2-propynyl)imidazolidin-1-yl]-2-trifluoromethylbenzonitrile], the melting point was determined as 195 °C. In series [1] (setting [2]), the inhibition in vivo at 30 mg/kg was 50 to 140%. In addition, the inhibition in vivo at 30 mg/kg in series [1] (setting [3]) was in the range of 5 to 70%.
For `C=CCN1C(=O)N(c2ccc(Cl)c(Cl)c2)C(=O)C1c1ccc(O)cc1` (centres unmarked) [Example 3, 1-(3,4-dichlorophenyl)-4-(4-hydroxyphenyl)-3-(2-propenyl)imidazolidine-2,5-dione], the inhibition in vivo at 30 mg/kg in series [1] (setting [4]) was 50 to 140%; in series [1] (setting [5]), 5 to 70%.
As for `CN1C(=O)N(c2ccc(C#N)c(C(F)(F)F)c2)C(=O)[C@@]1(C)c1ccc(O)cc1` [Example 155, (R)-4-[3,4-dimethyl-2,5-dioxo-4-(4-hydroxyphenyl)imidazolidin-1-yl]-2-trifluoromethylbenzonitrile], the inhibition in vivo at 30 mg/kg in series [1] (setting [2]) was in the range of 50 to 140%; in series [1] (setting [3]) it was 5 to 70%.
The compound `CN1C(=O)N(c2ccc(Cl)c(Cl)c2)C(=O)C1c1ccc(O)cc1` (centres unmarked) [Example 1, 1-(3,4-dichlorophenyl)-4-(4-hydroxyphenyl)-3-methylimidazolidine-2,5-dione] yielded a melting point of 200 °C. In series [1] (setting [4]), the inhibition in vivo at 30 mg/kg lay in the range of 50 to 140%. Besides, the inhibition in vivo at 30 mg/kg in series [1] (setting [5]) is 5 to 70%.
For `C#CCN1C(=O)N(c2ccc(C#N)c(C(F)(F)F)c2)C(=O)C1(C)c1ccc(O)cc1` (centres unmarked) [Example 6, 4-[2,5-dioxo-4-(4-hydroxyphenyl)-4-methyl-3-(2-propynyl)imidazolidin-1-yl]-2-trifluoromethylbenzonitrile], the figures for the inhibition in vivo at 30 mg/kg in series [1] (setting [2]) and in series [1] (setting [3]) were 50 to 140% and 5 to 70%, respectively.
On to `CN1C(=O)N(c2ccc(C#N)c(C(F)(F)F)c2)C(=O)C1(C)c1ccc(O)cc1` (centres unmarked) [Example 5, 4-[3,4-dimethyl-2,5-dioxo-4-(4-hydroxyphenyl)imidazolidin-1-yl]-2-trifluoromethylbenzonitrile], for which the inhibition in vivo at 30 mg/kg in series [1] (setting [2]) fell in the range of 50 to 140%; in series [1] (setting [3]), 5 to 70%.
With `CC#CCN1C(=O)N(c2ccc(C#N)c(C(F)(F)F)c2)C(=O)C1(C)c1ccc(O)cc1` (centres unmarked) [Example 220, 4-[3-(2-butynyl)-4-(4-hydroxyphenyl)-4-methyl-2,5-dioxoimidazolidin-1-yl]-2-trifluoromethylbenzonitrile], the melting point worked out at 172 °C. Also, in series [1] (setting [2]), the inhibition in vivo at 30 mg/kg was in the range of 50 to 140%. For the same compound, the inhibition in vivo at 30 mg/kg in series [1] (setting [3]) was in the range of 5 to 70%.
